Source: paper PMC9964635, “Bio-Oriented Synthesis and Molecular Docking Studies of 1,2,4-Triazole Based Derivatives as Potential Anti-Cancer Agents against HepG2 Cell Line” (Pharmaceuticals, 2023)
Values after ≈ are worked out from the molar mass of the structure shown. One block for each compound: values may come before it.

How the values were obtained:
HepG2 cell line = assay: MTT assay, cell viability against HepG2; type: cell-based; conditions: Homo sapiens; for inhibition at 3.125 µg/mL / inhibition at 6.25 µg/mL / inhibition at 12.5 µg/mL / inhibition at 25 µg/mL / inhibition at 50 µg/mL / inhibition at 100 µg/mL / inhibition at 200 µg/mL: HepG2; for IC50: HepG2, MTT, 48 h
Experimental: The anti-hepatocellular activity of afforded N-arylated 1,2,4-triazole coupled acetamides (7a–f) was evaluated via MTT assay and these structural hybrids were screened against a liver cancer HepG2 cell line.
The cell viability of all of the compounds was further evaluated using various concentrations ([…]) to test the dose response and % inhibition relationship as shown in Table 2.
Human HepG2 liver cancer cell lines were cultured by Dulbecco’s modified Eagle’s medium. It is composed of 100 μg/mL streptomycin, 100 units/mL penicillin, and 10% FBS. A humidified atmosphere was provided for incubation at 37 °C with 5% CO2. The anti-hepatocellular therapeutic potential of triazole-based scaffolds was evaluated by dissolving its different concentrations in 0.05% DMSO.
An MTT assay was applied for evaluation of cell viability against the HepG2 cell line. In short, different concentrations of new triazole-based scaffolds were incubated with HepG2 cell lines for 48 h. After incubation, 5 mg/mL of 10 µL MTT solution was added in each plate and they were further incubated at 37 °C for 4 h. The percentage of cell viability was calculated at 490 nm after the addition of 150 μL DMSO into a microplate reader (Thermo Scientific, Waltham, MA, USA).

[1] = no reference given; cited from earlier work
[2] = Hemolytic activity, Triton-X-100 as standard; conditions: relative to Triton-X-100
From the text: Hemolytic activity was investigated by the reported method using Triton-X-100 as a standard. Molecule 7f also presented very low toxicity at 1.19 ± 0.02 relative to reference Triton-X-100. All of the other compounds had moderately good hemolytic activity.
Hemolytic activity was investigated by the reported method using Triton-X-100 as standard.

Compound: Cc1ccccc1NC(=O)CSc1nnc(C(C)c2ccc(CC(C)C)cc2)n1C (stereo not shown) [Compound 7a, N-(2-Methylphenyl)-2-((5-(1-(4-isobutylphenyl)ethyl)-4-methyl-4H-1,2,4-triazol-3-yl)thio)Acetamide]
inhibition at 3.125 µg/mL (HepG2 cell line): 11.6%
inhibition at 6.25 µg/mL (HepG2 cell line): 21.4 ± 6.24%
inhibition at 12.5 µg/mL (HepG2 cell line): 27.7 ± 6.46%
inhibition at 25 µg/mL (HepG2 cell line): 64 ± 1.67%
inhibition at 50 µg/mL (HepG2 cell line): 75.2 ± 5.99%
inhibition at 100 µg/mL (HepG2 cell line): 88.17 ± 0.26%
inhibition at 200 µg/mL (HepG2 cell line): 89.4 ± 0.34%
IC50 (HepG2 cell line): 20.7 µg/mL (≈ 48.9 µM)
melting point: 122 to 124 °C

Compound: CC(C)Cc1ccc(C(C)c2nnc(SCC(=O)Nc3ccccc3Cl)n2C)cc1 (stereo not shown) [Compound 7d, N-(2-Chlorophenyl)-2-((5-(1-(4-Isobutylphenyl)Ethyl)-4-Methyl-4H-1,2,4-Triazol-3-yl)Thio)Acetamide]
inhibition at 3.125 µg/mL (HepG2 cell line): 14.3 ± 4.27%
inhibition at 6.25 µg/mL (HepG2 cell line): 17.3 ± 1.4%
inhibition at 12.5 µg/mL (HepG2 cell line): 19.1 ± 17.7%
inhibition at 25 µg/mL (HepG2 cell line): 19.5 ± 1.44%
inhibition at 50 µg/mL (HepG2 cell line): 76.7 ± 5.63%
inhibition at 100 µg/mL (HepG2 cell line): 78.33 ± 0.78%
inhibition at 200 µg/mL (HepG2 cell line): 87.7 ± 0.18%
IC50 (HepG2 cell line): 39.7 µg/mL (≈ 89.5 µM)
melting point: 123 to 125 °C

Compound: CC(C)Cc1ccc(C(C)c2nnc(SCC(=O)Nc3ccccc3)n2C)cc1 (stereo not shown) [Compound 7e, N-(Phenyl)-2-((5-(1-(4-Isobutylphenyl)Ethyl)-4-Methyl-4H-1,2,4-Triazol-3-yl)Thio)Acetamide]
inhibition at 3.125 µg/mL (HepG2 cell line): 18.6 ± 0.5%
inhibition at 6.25 µg/mL (HepG2 cell line): 20.5 ± 7.11%
inhibition at 12.5 µg/mL (HepG2 cell line): 21 ± 3.13%
inhibition at 25 µg/mL (HepG2 cell line): 24 ± 6.12%
inhibition at 50 µg/mL (HepG2 cell line): 74.2 ± 13.2%
inhibition at 100 µg/mL (HepG2 cell line): 87.3 ± 2.09%
inhibition at 200 µg/mL (HepG2 cell line): 88 ± 1.44%
IC50 (HepG2 cell line): 39.1 µg/mL (≈ 95.7 µM)
melting point: 88 to 90 °C

Compound: CNC(=O)c1cc(Oc2ccc(NC(=O)Nc3ccc(Cl)c(C(F)(F)F)c3)cc2)ccn1 [Sorafenib, reference compound]
bioavailability [1]: 38–49%
IC50 (HepG2 cell line): 5.97 µg/mL (≈ 12.8 µM)

Compound: Triton-X-100 [reference compound]
Hemolytic Activity (Mean% ± S.D) [2]: 100 ± 0.0%
Hemolytic Activity (Mean% ± S.D) ([2]; listed as Triton X100): 100%

Further lines, with some results ahead:

IC50 (HepG2 cell line): 33.6 µg/mL (≈ 66.9 µM)
melting point: 122 to 124 °C
Compound: Cc1cc(Br)ccc1NC(=O)CSc1nnc(C(C)c2ccc(CC(C)C)cc2)n1C (stereo not shown) [Compound 7b, N-(4-Bromo-2-Mthylphenyl)-2-((5-(1-(4-Isobutylphenyl)Ethyl)-4-Methyl-4H-1,2,4-Triazol-3-yl)Thio)Acetamide]
inhibition at 3.125 µg/mL (HepG2 cell line): 10.3%
inhibition at 6.25 µg/mL (HepG2 cell line): 24.8 ± 4.62%
inhibition at 12.5 µg/mL (HepG2 cell line): 25.2 ± 4.67%
inhibition at 25 µg/mL (HepG2 cell line): 31.9 ± 0.3%
inhibition at 50 µg/mL (HepG2 cell line): 88.6 ± 1.11%
inhibition at 100 µg/mL (HepG2 cell line): 89.4 ± 0.91%
inhibition at 200 µg/mL (HepG2 cell line): 89.5 ± 0.06%

IC50 (HepG2 cell line): 39 µg/mL (≈ 89.3 µM)
melting point: 100 to 102 °C
Compound: CCc1ccc(NC(=O)CSc2nnc(C(C)c3ccc(CC(C)C)cc3)n2C)cc1 (stereo not shown) [Compound 7c, N-(4-Ethylphenyl)-2-((5-(1-(4-Isobutylphenyl)Ethyl)-4-Methyl-4H-1,2,4-Triazol-3-yl)Thio)Acetamide]
inhibition at 3.125 µg/mL (HepG2 cell line): 15.4 ± 2.01%
inhibition at 6.25 µg/mL (HepG2 cell line): 17.4 ± 1.32%
inhibition at 12.5 µg/mL (HepG2 cell line): 19.1 ± 1.25%
inhibition at 25 µg/mL (HepG2 cell line): 22.8 ± 0.29%
inhibition at 50 µg/mL (HepG2 cell line): 73.7 ± 15.5%
inhibition at 100 µg/mL (HepG2 cell line): 78.8 ± 10.8%
inhibition at 200 µg/mL (HepG2 cell line): 87.51 ± 0.2%

IC50 (HepG2 cell line): 16.8 µg/mL (≈ 38.4 µM)
melting point: 150 to 152 °C
Compound: Cc1cccc(C)c1NC(=O)CSc1nnc(C(C)c2ccc(CC(C)C)cc2)n1C (stereo not shown) [Compound 7f, N-(2,6-Dimethylphenyl)-2-((5-(1-(4-Isobutylphenyl)Ethyl)-4-Methyl-4H-1,2,4-Triazol-3-yl)Thio)Acetamide]
inhibition at 3.125 µg/mL (HepG2 cell line): 8.4 ± 4.54%
inhibition at 6.25 µg/mL (HepG2 cell line): 19.6 ± 4.07%
inhibition at 12.5 µg/mL (HepG2 cell line): 34 ± 2.47%
inhibition at 25 µg/mL (HepG2 cell line): 85.9 ± 0.3%
inhibition at 50 µg/mL (HepG2 cell line): 86.57 ± 0.56%
inhibition at 100 µg/mL (HepG2 cell line): 87.7 ± 1.34%
inhibition at 200 µg/mL (HepG2 cell line): 88.36 ± 0.31%
